Measured values taken from EP2110134A1, “Cocoa extract compounds and methods for making and using the same” (MARS, INCORPORATED, priority 1996, dated 1997).

What was measured:
[1] = Rancimat oxidative stability test; details: 100°C, 20 cc/min air
Experimental: The procedures described in Examples 1, 2 and 3 were used to prepare cocoa extracts which were manipulated further to produce two fractions from gel permeation chromatography. These two fractions are actually combined fractions A through C, and D and E (See Figure 1) whose antioxidant properties were compared against the synthetic antioxidants BHA and BHT.
Peanut Oil was pressed from unroasted peanuts after the skins were removed. 50µL of methanol solubilized antioxidant was added to each sample to aid in dispersion of the antioxidant. A control sample was prepared with 50µL of methanol containing no antioxidant.
The samples were evaluated in duplicate, for oxidative stability using the Rancimat stability test at 100°C and 20 cc/min of air. Experimental parameters were chosen to match those used with the Active Oxygen Method (AOM) or Swift Stability Test (Van Oosten et al., 1981). Results are reported in Table 8 as hours required to reach a peroxide level of 100 meq. Table 7: Concentrations of Antioxidants

[2] = system: Helicobacter pylori; assay: Disk diffusion bioassay; type: cell-based; details: control disk, 80ug, read-out: H. pylori Inhibition
Experimental: (§1) A study was conducted to evaluate the antimicrobial activity of procyanidin oligomers against Helicobacter pylori and Staphylococcus aureus. Pentamer enriched material was prepared as described in Example 13, Method A and analyzed as described in Example 14, Method C, where 89% was pentamer, and 11% was higher oligomers (n is 6 to 12). Purified pentamer (96.3%) was prepared as described in Example 14, Method D.
(§2) Helicobacter pylori and Staphylococcus aureus were obtained from the American Type Culture Collection (ATCC). For H. pylori, the vial was rehydrated with 0.5 mL Trypticase Soy broth and the suspension transferred to a slant of fresh TSA containing 5% defibrinated sheep blood. The slant was incubated at 37°C for 3 to 5 days under microaerophilic conditions in anaerobic jars (5 to 10% carbon dioxide; CampyPakPlus, BBL). When good growth was established in the pool of broth at the bottom of the slant, the broth was used to inoculate additional slants of TSA with sheep blood. Because viability decreased with continued subculturing, the broth harvested from the slants was pooled and stored at -80°C. Cultures for assay were used directly from the frozen vials. […]
(§3) A cell suspension of each culture was prepared (H. pylori, 10^8 to 10^9 cfu/mL; S. aureus 10^6 to 10^7 cfu/mL) and 0.5 mL spread onto TSA plates with 5% sheep blood. […] Zones of inhibition were measured following outgrowth. […]

[3] = system: Staphylococcus aureus; assay: Disk diffusion bioassay; type: cell-based; details: read-out: S. aureus Inhibition
Experimental: as §1, §2, §3

[4] = system: Human umbilical vein endothelial cells (HUVEC); assay: NO production by HUVEC, Griess reaction; type: cell-based
Experimental: Human umbilical vein endothelial cells (HUVEC) were obtained from Clonetics and cultures were carried out according to the manufacturer's specifications. HUVEC cells were seeded at 5,000 cells/cm^2 in 12-well plates (Falcon). After the third passage under the same conditions, they were allowed to reach confluence. The supernatant was renewed with fresh medium containing defined concentrations of bradykinin (25,50 and 100nM) or cocoa procyanidin fractions A-E (100µg/mL) as described in example 31. The culture was continued for 24 hr. and the cell free supernatants were collected and stored frozen prior to assessment of NO content as described below. In selected experiments, the NO synthase (NOS) antagonist, Nω-nitro-L-arginine methyl ester (L-NAME, 10µM) was added to assess the involvement of NOS in the observed NO production.
HUVEC NO production was estimated by measuring nitrite concentration in the culture supernatant by the Griess reaction. Griess reagent was 1% sulfanilamide, 0.1% N-(1-naphthyl)-ethylenediamine dihydrochloride. Briefly, 50µL aliquots were removed from the various supernatants in quadruplicate and incubated with 150µL of the Griess reagent. The absorbency at 540 nm was determined in a multiscan (Labsystems Multiskans MCC/340) apparatus. Sodium nitrite was used at defined concentrations to establish standard curves. […]

COc1ccc(O)c(C(C)(C)C)c1 [BHA, Butylated Hydroxyanisole]
hours required to reach a peroxide level of 100 meq ([1]; 20 ppm nominal (actual levels in Table 7), control 10.5 ± 0.7): 13.5 ± 2.1 h | hours required to reach a peroxide level of 100 meq ([1]; 100 ppm nominal (actual levels in Table 7)): 14.0 ± 1.4 h

Cc1ncc([N+](=O)[O-])n1CCO [Metronidazole standard, metronidazole]
zone of inhibition at 80 µg/disc [2]: 11 mm

CN[C@H](CC(C)C)C(=O)N[C@H]1C(=O)N[C@@H](CC(N)=O)C(=O)N[C@H]2C(=O)N[C@H]3C(=O)N[C@H](C(=O)N[C@H](C(=O)O)c4cc(O)cc(O)c4-c4cc3ccc4O)[C@H](O)c3ccc(c(Cl)c3)Oc3cc2cc(c3O[C@@H]2O[C@H](CO)[C@@H](O)[C@H](O)[C@H]2O[C@H]2C[C@](C)(N)[C@H](O)[C@H](C)O2)Oc2ccc(cc2Cl)[C@H]1O [Vancomycin standard, vancomycin]
zone of inhibition at 30 µg/disc [3]: 15 mm

bradykinin (RPPGFSPFR; Bradykinin; UniProt P01042 381-389, looked up)
NO production by HUVEC ([4]; 25, 50 and 100nM, 24 hr): dose dependent release of NO | NO release in the presence of L-NAME ([4]; L-NAME 10µM): completely inhibited
